The structures appear in SMILES notation.

One molecule from PMC6458850, “CXXC5 mediates growth plate senescence and is a target for enhancement of longitudinal bone growth” (Life Science Alliance, 2019) can be followed below.

This assay addresses GSK3β (human) (Homo sapiens, UniProt P49841). Kind of assay: GSK3β kinase assay. The class given is biochemical. The settings on record: dose–response curve, n = 3; read-out: IC50, in vitro GSK3β activity. As for the experimental part:
GSK3β (human) was incubated with 8 mM MOPS (pH 7.0), 0.2 mM EDTA, 20 μM […](p) EDEEE (phospho-GS2 peptide), 10 mM Mg acetate, and [γ-33P-ATP] (specific activity ∼500 cpm/pmol, concentration as required). The reaction was initiated by the addition of the Mg-ATP mixture. After incubation for 40 min at room temperature, the reaction was stopped by addition of 3% phosphoric acid solution. 10 μl of the reaction was then spotted onto a P30 filtermat and washed three times for 5 min in 50 mM phosphoric acid and once in methanol before drying and scintillation counting.

GSK3β (human), sequence (P49841 whole entry): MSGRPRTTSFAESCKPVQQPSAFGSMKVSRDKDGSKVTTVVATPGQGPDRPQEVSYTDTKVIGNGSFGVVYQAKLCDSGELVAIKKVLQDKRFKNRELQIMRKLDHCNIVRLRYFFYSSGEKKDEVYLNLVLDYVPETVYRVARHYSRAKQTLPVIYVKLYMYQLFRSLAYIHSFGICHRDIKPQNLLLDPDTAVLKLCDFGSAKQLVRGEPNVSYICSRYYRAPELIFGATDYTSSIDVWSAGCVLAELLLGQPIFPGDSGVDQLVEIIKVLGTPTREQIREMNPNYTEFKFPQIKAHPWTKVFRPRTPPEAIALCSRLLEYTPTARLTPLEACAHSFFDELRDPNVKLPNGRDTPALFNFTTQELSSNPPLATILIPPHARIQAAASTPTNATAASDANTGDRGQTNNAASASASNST

For orientation: IC50 means the concentration needed to halve the response being measured. As to `CON=C1C(=C2C(=O)Nc3cc(Cl)c(Cl)cc32)Nc2ccccc21` [KY19382, 5,6-dichloroindirubin-3′-methoxime], the IC50 was found to be 10 nM.
